The record followed here is patent US10047051B2, “Substituted pyridines and method of use” (AbbVie S.á{acute over (.)}r.l., priority 2015, dated 2018).

Assay type in all cases: cell-based
For one assay, the target named is T1, CFTR ΔF508 mutant (Homo sapiens, UniProt P13569, DEL508-508).
T1 construct: expressed in transfected cells; host or cells: CFBE41o- cells, adenoviral transduction
The experiment in a line: YFP-halide influx assay for the CFTR-ΔF508 mutation (CFBE41o- cells). The following applies: forskolin 10.67 μM; for EC50: from (1−F/F0) vs concentration plot. The gist of the method:
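EC50 derived from plotting 1−F/F0 (fluorescence 36 s after iodide injection over pre-injection value) against compound concentration. Cells: CFBE41o- transduced with ΔF508-CFTR and YFP quench reporter, corrected 24 h at 27° C or by a CFTR modulator at 37° C.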

The next assay addresses T2, CFTR-R117H (Homo sapiens, UniProt P13569, R117H).
T2 construct: expressed in transfected cells
The assay can be described thus: YFP-halide influx assay for the CFTR-R117H. From the text:
(§1) The YFP halide influx assay measured the functionality of the cystic fibrosis Transmembrane Conductance regulator (CFTR) channels. The assay was used to evaluate the capacity of compounds to increase the channel opening of existing mutant CFTR channels in the membrane. It makes use of the observation that the yellow fluorescent protein (YFP) variant YFP H148Q, I152L, F47L has its fluorescence substantially quenched by halide ions like Cl^− and I^− (Galietta, L. J. V., Haggie, P. M., Verkman, A. S., 2001. Green fluorescent protein-based halide indicators with improved chloride and iodide affinities. FEBS Lett. 499, 220-224. doi:10.1016/S0014-5793(01)02561-3).
(§2) For this purpose, HEK293-cells were seeded in 96 well plates. During seeding, the cells were reverse-transfected with plasmid vectors that direct the expression of the CFTR G551D mutant and of the YFP reporter. Cells were incubated at 37° C., 5% CO2 for 24 hours so as to allow for sufficient expression of the CFTR protein.
(§3) The I^−-induced quenching of fluorescence was recorded immediately after injection of I^− for 7 seconds. The capacity of a compound to increase the channel opening was directly correlated with the decrease in fluorescence, and was expressed as (1−(fluorescence after 7 seconds (F)/fluorescence before injection (F0))) and an EC50 was derived from a (1−F/F0) vs compound concentration plot.
(§4) Similar YHA assays were developed for other channel gating defective or channel conductance defective CFTR mutants to determine effect of compound on channel activity. Examples of mutants are G178R, G1349D, S549N, R117H, R334W. This assay is also used for additional class I CFTR mutants, including G542X, W1282X; class II mutants including N1303K, and for class III mutants including S1251N; or wild-type CFTR.

For the next assay, the target named is T3, CFTR-G1349D (Homo sapiens, UniProt P13569, G1349D).
T3 construct: expressed in transfected cells
T3 sequence (P13569 whole entry G1349D): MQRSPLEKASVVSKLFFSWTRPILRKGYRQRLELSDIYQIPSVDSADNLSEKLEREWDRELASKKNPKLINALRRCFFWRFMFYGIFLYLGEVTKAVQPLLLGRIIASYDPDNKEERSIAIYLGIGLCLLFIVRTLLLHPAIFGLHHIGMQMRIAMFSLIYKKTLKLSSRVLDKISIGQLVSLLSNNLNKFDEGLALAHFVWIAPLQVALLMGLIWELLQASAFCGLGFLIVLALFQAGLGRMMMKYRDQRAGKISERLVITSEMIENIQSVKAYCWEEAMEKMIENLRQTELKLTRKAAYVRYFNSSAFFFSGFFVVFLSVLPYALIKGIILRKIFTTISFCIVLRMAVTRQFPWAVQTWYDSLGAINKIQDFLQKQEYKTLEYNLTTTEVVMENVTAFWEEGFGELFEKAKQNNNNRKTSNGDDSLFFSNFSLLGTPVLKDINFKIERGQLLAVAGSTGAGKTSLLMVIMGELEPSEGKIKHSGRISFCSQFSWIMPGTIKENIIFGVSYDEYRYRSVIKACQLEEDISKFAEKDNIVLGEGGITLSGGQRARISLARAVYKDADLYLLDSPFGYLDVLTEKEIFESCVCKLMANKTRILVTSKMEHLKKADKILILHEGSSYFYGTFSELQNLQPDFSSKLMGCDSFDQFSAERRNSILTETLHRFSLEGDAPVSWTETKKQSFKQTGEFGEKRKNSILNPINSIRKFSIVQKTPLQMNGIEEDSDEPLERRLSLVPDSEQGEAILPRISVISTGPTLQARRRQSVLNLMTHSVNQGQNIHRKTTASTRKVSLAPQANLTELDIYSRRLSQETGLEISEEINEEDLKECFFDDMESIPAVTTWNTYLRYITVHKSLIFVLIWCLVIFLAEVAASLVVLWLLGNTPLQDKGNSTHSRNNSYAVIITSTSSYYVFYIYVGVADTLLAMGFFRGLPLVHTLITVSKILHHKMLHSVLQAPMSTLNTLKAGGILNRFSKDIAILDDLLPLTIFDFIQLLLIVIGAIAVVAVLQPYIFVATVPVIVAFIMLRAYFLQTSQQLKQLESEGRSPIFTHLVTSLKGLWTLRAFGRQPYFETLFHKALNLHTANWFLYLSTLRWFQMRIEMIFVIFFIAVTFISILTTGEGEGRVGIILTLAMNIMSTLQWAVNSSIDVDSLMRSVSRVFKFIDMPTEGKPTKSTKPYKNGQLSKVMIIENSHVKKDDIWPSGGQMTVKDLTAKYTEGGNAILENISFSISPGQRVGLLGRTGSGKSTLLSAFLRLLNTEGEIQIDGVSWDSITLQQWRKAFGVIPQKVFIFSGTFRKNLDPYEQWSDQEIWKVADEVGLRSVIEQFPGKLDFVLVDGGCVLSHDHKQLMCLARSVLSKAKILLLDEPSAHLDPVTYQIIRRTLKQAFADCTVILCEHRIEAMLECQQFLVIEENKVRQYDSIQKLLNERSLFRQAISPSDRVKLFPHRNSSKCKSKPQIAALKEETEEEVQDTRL
The experiment in a line: YFP-halide influx assay for the CFTR-G1349D.
From the text: as §1, §2, §3, §4

For a further assay, the target named is T4, CFTR G551D mutant (Homo sapiens, UniProt P13569, G551D).
T4 construct: expressed in transfected cells; host or cells: HEK293 cells, reverse transfection with plasmids
T4 sequence (P13569 whole entry G551D): as the sequence (P13569 whole entry G1349D) above, with G551D, D1349G counted along it
The assay can be described thus: YFP-halide influx assay for the CFTR-G551D mutation (HEK293 cells). The note with it: forskolin 10.67 μM. The procedure, abridged:
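Channel opening read as I⁻-driven quenching of a YFP H148Q/I152L/F47L reporter over 7 s post-injection, expressed as 1−F/F0 and fitted against concentration for EC50. Cells were HEK293 co-transfected at seeding with G551D CFTR plus reporter, then grown 24 h at 37 °C, 5% CO2.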

T1 sequence (P13569 with tags, fused parts or gaps DEL508-508): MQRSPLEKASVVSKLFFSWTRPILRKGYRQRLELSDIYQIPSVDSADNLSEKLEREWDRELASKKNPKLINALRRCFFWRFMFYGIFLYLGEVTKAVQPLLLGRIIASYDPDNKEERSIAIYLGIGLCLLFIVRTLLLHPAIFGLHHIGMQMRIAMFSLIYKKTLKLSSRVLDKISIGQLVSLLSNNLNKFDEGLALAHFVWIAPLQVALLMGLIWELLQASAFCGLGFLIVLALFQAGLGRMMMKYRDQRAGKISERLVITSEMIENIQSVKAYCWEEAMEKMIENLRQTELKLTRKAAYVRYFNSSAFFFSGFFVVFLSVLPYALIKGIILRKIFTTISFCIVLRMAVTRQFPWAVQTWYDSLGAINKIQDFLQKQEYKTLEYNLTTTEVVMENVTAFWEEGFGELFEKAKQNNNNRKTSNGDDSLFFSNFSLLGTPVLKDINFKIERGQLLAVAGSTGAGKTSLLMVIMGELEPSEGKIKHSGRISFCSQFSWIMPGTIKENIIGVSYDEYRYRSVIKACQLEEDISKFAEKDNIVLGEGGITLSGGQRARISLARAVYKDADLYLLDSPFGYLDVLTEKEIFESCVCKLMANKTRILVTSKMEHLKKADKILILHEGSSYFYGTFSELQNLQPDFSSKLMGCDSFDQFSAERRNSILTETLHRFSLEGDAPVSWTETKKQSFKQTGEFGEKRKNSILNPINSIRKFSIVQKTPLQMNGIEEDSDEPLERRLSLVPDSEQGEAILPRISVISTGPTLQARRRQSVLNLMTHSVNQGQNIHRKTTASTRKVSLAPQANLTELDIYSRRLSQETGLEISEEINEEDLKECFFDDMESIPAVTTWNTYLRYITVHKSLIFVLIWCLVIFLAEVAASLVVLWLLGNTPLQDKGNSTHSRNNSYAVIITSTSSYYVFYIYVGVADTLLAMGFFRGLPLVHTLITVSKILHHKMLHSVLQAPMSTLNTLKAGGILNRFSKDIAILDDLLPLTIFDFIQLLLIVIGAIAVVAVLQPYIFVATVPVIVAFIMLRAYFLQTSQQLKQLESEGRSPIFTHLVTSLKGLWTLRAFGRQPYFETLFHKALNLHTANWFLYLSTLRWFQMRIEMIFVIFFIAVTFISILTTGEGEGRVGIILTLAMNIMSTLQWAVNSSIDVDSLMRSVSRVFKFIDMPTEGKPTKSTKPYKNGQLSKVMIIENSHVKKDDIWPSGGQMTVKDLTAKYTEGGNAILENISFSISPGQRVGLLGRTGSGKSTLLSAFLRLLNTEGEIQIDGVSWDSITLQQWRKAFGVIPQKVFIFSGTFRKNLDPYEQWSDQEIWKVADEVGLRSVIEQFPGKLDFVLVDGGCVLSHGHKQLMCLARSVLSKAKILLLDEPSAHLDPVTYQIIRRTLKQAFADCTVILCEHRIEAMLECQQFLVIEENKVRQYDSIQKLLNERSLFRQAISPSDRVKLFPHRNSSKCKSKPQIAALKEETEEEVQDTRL
T2 sequence (P13569 whole entry R117H): as the sequence (P13569 whole entry G1349D) above, with R117H, D1349G counted along it

As a reminder, the EC50 is the concentration at which the effect is half-maximal. Regarding `Nc1cc(S(=O)(=O)c2ccc(C(F)(F)F)cc2)cnc1C(=O)N1CC(F)(F)C1` [Compound 103, (3-amino-5-{[4-(trifluoromethyl)phenyl]sulfonyl}pyridin-2-yl)(3,3-difluoroazetidin-1-yl)methanone], the “% Activation” value at CFTR ΔF508 mutant was determined as 110.0%; at CFTR-R117H it was 87.8%; on CFTR-G1349D, 67.7%; at CFTR G551D mutant, 52.6%. In addition, the EC50 is 26.2 nM on CFTR ΔF508 mutant, 351 nM on CFTR-R117H, 448 nM at CFTR-G1349D and 368 nM on CFTR G551D mutant.

For `CC(C)NC(=O)CNC(=O)c1ncc(S(=O)(=O)c2ccc(OC(F)(F)F)cc2)cc1N` [Compound 57, 3-amino-N-[2-oxo-2-(propan-2-ylamino)ethyl]-5-{[4-(trifluoromethoxy)phenyl]sulfonyl}pyridine-2-carboxamide], the “% Activation” value is reported as 93.1% at CFTR ΔF508 mutant, 72.8% on CFTR-R117H, 59.6% on CFTR-G1349D and 51.8% at CFTR G551D mutant. Also, the 50% effective concentration (EC50) at CFTR ΔF508 mutant amounted to 7.1 nM; at CFTR-R117H, 356 nM; on CFTR-G1349D, 457 nM; at CFTR G551D mutant, 385 nM.

Regarding `COCC1(C)CN(C(=O)c2ncc(S(=O)(=O)c3ccc(OC(F)(F)F)cc3)cc2N)C1` [Compound 154, (3-amino-5-{[4-(trifluoromethoxy)phenyl]sulfonyl}pyridin-2-yl)[3-(methoxymethyl)-3-methylazetidin-1-yl]methanone], the “% Activation” value is 98.1% at CFTR ΔF508 mutant, 107.0% on CFTR-R117H, 97.6% on CFTR-G1349D and 81.9% on CFTR G551D mutant. Moreover, the EC50 came out at 66.3 nM at CFTR ΔF508 mutant, 499 nM at CFTR-R117H, 637 nM on CFTR-G1349D and 881 nM at CFTR G551D mutant.

Regarding `Nc1cc(S(=O)(=O)c2ccc(OC(F)(F)F)cc2)cnc1C(=O)N1CC(OCC(F)F)C1` [Compound 119, (3-amino-5-{[4-(trifluoromethoxy)phenyl]sulfonyl}pyridin-2-yl)[3-(2,2-difluoroethoxy)azetidin-1-yl]methanone], the “% Activation” value at CFTR ΔF508 mutant is 101.0%; on CFTR-R117H, 89.9%; on CFTR-G1349D, 84.8%; at CFTR G551D mutant it was 64.6%. The EC50 on CFTR ΔF508 mutant turned out to be 34.1 nM; at CFTR-R117H, 307 nM; on CFTR-G1349D, 320 nM; at CFTR G551D mutant, 554 nM.

Regarding `Nc1cc(S(=O)(=O)c2ccc(C(F)(F)F)cc2)cnc1C(=O)NCC(F)(F)F` [Compound 209, 3-amino-N-(2,2,2-trifluoroethyl)-5-{[4-(trifluoromethyl)phenyl]sulfonyl}pyridine-2-carboxamide], on CFTR ΔF508 mutant, the “% Activation” value was 93.8% and the half-maximal effective concentration (EC50) was determined as 36.2 nM. At CFTR G551D mutant, the “% Activation” value was 39.3% and the EC50 is > 10000 nM.

On to `Nc1cc(S(=O)(=O)c2ccc(C(F)(F)F)cc2)cnc1C(=O)NCC(O)COCC1CC1` (centres unmarked) [Compound 131, 3-amino-N-[3-(cyclopropylmethoxy)-2-hydroxypropyl]-5-{[4-(trifluoromethyl)phenyl]sulfonyl}pyridine-2-carboxamide], for which the “% Activation” value at CFTR ΔF508 mutant was 110.2%; at CFTR G551D mutant, 68.6%. Also, the EC50 at CFTR ΔF508 mutant was determined as 12.8 nM; at CFTR G551D mutant, 817 nM.

Regarding `CN(Cc1ccc(F)cc1)S(=O)(=O)c1cnc(C(=O)NCC(O)C(F)(F)F)c(N)c1` (centres unmarked) [Compound 187, 3-amino-5-[(4-fluorobenzyl)(methyl)sulfamoyl]-N-(3,3,3-trifluoro-2-hydroxypropyl)pyridine-2-carboxamide], the “% Activation” value is given as 99.1% at CFTR ΔF508 mutant and 71.8% at CFTR G551D mutant. Moreover, the EC50 on CFTR ΔF508 mutant is 2.8 nM; at CFTR G551D mutant, 705 nM.
